Literature values, collected in US9006292B2, “Metadichol® liquid and gel nanoparticle formulations” (NanoRx, Inc., priority 2013, dated 2015).
Read-outs that look alike come from different tables or passages of the source.

Assays:
RDW = conditions: 6 months
[1] = topical, phase I trial of 14 patients
Lp(a) = conditions: in vivo

In the case of COCCc1ccc(OCC(O)CNC(C)C)cc1 (stereo not drawn) [Metoprolol], the RDW (RDW; 100 mg/day, n=35, from 15.6) is listed as 15.45.
In the case of C=C1/C(=C\C=C2/CCC[C@]3(C)[C@@H]([C@H](C)CCCC(C)(C)O)CC[C@@H]23)C[C@@H](O)C[C@@H]1O [1,25-dihydroxycholecalciferol], the “prevention of chemotherapy-induced alopecia” value [1] is given as “failed to show efficacy” and the “growth of P. falciparum in culture” value (P. falciparum; low doses) is given as “inhibitory”.
In the case of OC(CNCC(O)C1CCc2cc(F)ccc2O1)C1CCc2cc(F)ccc2O1 (stereo not drawn) [Nebivolol], the RDW (RDW; 5 mg/d, n=37, from 15.8) is given as 15.
In the case of C=C1/C(=C\C=C2/CCC[C@]3(C)[C@@H]([C@H](C)CCCC(C)C)CC[C@@H]23)C[C@@H](O)C[C@@H]1O [1-hydroxy Vitamin D-3], the “growth of P. falciparum in culture” value (P. falciparum; low doses) is given as “inhibitory”.
In the case of C=C1CC[C@H](O)C/C1=C/C=C1\CCC[C@]2(C)[C@@H]([C@H](C)CCCC(C)(C)O)CC[C@@H]12 [25-hydroxy vitamin D3], the “growth of P. falciparum in culture” value (P. falciparum; low doses) is listed as “inhibitory”.
For C=C1CC[C@H](O)C/C1=C/C=C1\CCC[C@]2(C)[C@@H]([C@H](C)/C=C/[C@H](C)C(C)C)CC[C@@H]12 [vitamin D-2], the “growth of P. falciparum in culture” value (P. falciparum; higher levels) is given as “inhibitory”.
In the case of “Human growth hormone: Human growth hormone, cited as raising Lp(a)”, the “increase of Lp(a)” value (Lp(a)) is given as “up to 120%”.
In the case of C=C1CC[C@H](O)C/C1=C/C=C1\CCC[C@]2(C)[C@@H]([C@H](C)CCCC(C)C)CC[C@@H]12 [vitamin D-3], the “growth of P. falciparum in culture” value (P. falciparum; higher levels) is listed as “inhibitory”.
